# From patent US20220380306A1, “ASTAXANTHIN ESTERS AND METHODS OF USE THEREOF” (CARDAX,INC., priority 2019, published 2022)
# Experiments:
# IL-1β = IL-1β (Homo sapiens, UniProt P01584); conditions: cited from earlier work
# [1] = Hydrolysis of ADMG compared to ADSa in solution or under basic conditions (NaHCO3 / Na2CO3); type: physicochemical; conditions: 16 hours
# Method: The mixture was stirred at room temperature or 50° C. The reaction was monitored by HPLC and LCMS after 16 hours. […] “Byproduct” indicates a material that was formed other than the diester, monoester, or free astaxanthin.
# [2] = Hydrolysis of ADMG compared to ADSa under basic conditions with KOH; type: physicochemical; conditions: KOH 55.6 molar equivalents, room temperature
# Method: KOH was added at 55.6 molar equivalents as a solution in 81:9:10 methanol:dichloromethane:water at room temperature. The solution was analyzed using HPLC over various time points for starting diester (A), hydrolyzed monoester (B) and free astaxanthin (C). Byproduct indicates an impurity formed that is none of A, B, or C.
# [3] = 20 mg/D rosuvastatin vs. placebo; patients who achieved a reduction in CRP<2.0; cited from earlier work
# [4] = methotrexate 15-20 mg/week vs. placebo; cited from earlier work
# [5] = subjects with a reduction of CRP<2.0 mg/L (regardless of dose)
# [6] = methanol + saturated aq Na2CO3, rt
# [7] = methanol + saturated aq NaHCO3, 50° C.
# [8] = methanol + saturated aq NaHCO3, rt
compound,measurement,setting,value
canakinumab: monoclonal antibody that targets IL-1β,deaths from infection (mostly tuberculosis),IL-1β; active treatment groups vs. placebo,more deaths from infection
same,CRP and IL-6 levels,IL-1β; patients with active treatment,reduction
same,lipids,IL-1β; patients with active treatment,no change
same,reduction in cardiovascular death and all-cause mortality,IL-1β; [5],31%
same,"reduction in the primary end point (composite of myocardial infarction, stroke, or cardiovascular death)",IL-1β; [5],25%
"Astaxanthin Sarcosine Diester [ADSa, reference compound]",A (starting diester),"[1]; methanol, no base, rt",72% A
same,Byproduct,"[1]; methanol, no base, rt",16% byproduct
same,A (starting diester),[2]; time 0 hr,91.4%
same,B (hydrolyzed monoester),[2]; time 0 hr,0.5%
same,Byproduct,[2]; time 0 hr,0%
same,C (free astaxanthin),[2]; time 0 hr,0%
same,A (starting diester),[2]; time 0.05 hr,24.0%
same,B (hydrolyzed monoester),[2]; time 0.05 hr,46.8%
same,Byproduct,[2]; time 0.05 hr,1.3%
same,C (free astaxanthin),[2]; time 0.05 hr,22.2%
same,A (starting diester),[2]; time 0.62 hr,0%
same,B (hydrolyzed monoester),[2]; time 0.62 hr,0.5%
same,Byproduct,[2]; time 0.62 hr,3.8%
same,C (free astaxanthin),[2]; time 0.62 hr,90.8%
CC(C)c1nc(N(C)S(C)(=O)=O)nc(-c2ccc(F)cc2)c1/C=C/[C@@H](O)C[C@@H](O)CC(=O)O [rosuvastatin],reduction in vascular events,[3],62%
"CC1=C(/C=C/C(C)=C/C=C/C(C)=C/C=C/C=C(C)/C=C/C=C(C)/C=C/C2=C(C)C(=O)[C@@H](OC(=O)CN(C)C)CC2(C)C)C(C)(C)C[C@H](OC(=O)CN(C)C)C1=O [ADMG, Astaxanthin Dimethyl Glycinate Diester]",C (free astaxanthin),"[1]; methanol + saturated aq Na2CO3, 50° C.",92% C
same,B (hydrolyzed monoester),[1]; [6],5% B
same,C (free astaxanthin),[1]; [6],90% C
same,A (starting diester),[1]; [7],33% A
same,B (hydrolyzed monoester),[1]; [7],50% B
same,C (free astaxanthin),[1]; [7],23% C
same,A (starting diester),[1]; [8],64% A
same,B (hydrolyzed monoester),[1]; [8],28% B
same,C (free astaxanthin),[1]; [8],2% C
same,A (starting diester),"[1]; methanol, no base, rt",75% A
same,Byproduct,"[1]; methanol, no base, rt",21% byproduct
same,A (starting diester),[2]; time 0 hr,93.7%
same,B (hydrolyzed monoester),[2]; time 0 hr,0.1%
same,Byproduct,[2]; time 0 hr,0%
same,C (free astaxanthin),[2]; time 0 hr,0%
same,A (starting diester),[2]; time 0.07 hr,86.4%
same,B (hydrolyzed monoester),[2]; time 0.07 hr,7.3%
same,Byproduct,[2]; time 0.07 hr,0%
same,C (free astaxanthin),[2]; time 0.07 hr,0.1%
same,A (starting diester),[2]; time 0.65 hr,36.1%
same,B (hydrolyzed monoester),[2]; time 0.65 hr,44.9%
same,Byproduct,[2]; time 0.65 hr,0.1%
same,C (free astaxanthin),[2]; time 0.65 hr,13.2%
same,A (starting diester),[2]; time 1.23 hr,14.4%
same,B (hydrolyzed monoester),[2]; time 1.23 hr,44.6%
same,Byproduct,[2]; time 1.23 hr,0.8%
same,C (free astaxanthin),[2]; time 1.23 hr,34.6%
same,A (starting diester),[2]; time 1.80 hr,5.5%
same,B (hydrolyzed monoester),[2]; time 1.80 hr,34.2%
same,Byproduct,[2]; time 1.80 hr,1.4%
same,C (free astaxanthin),[2]; time 1.80 hr,53.0%
same,A (starting diester),[2]; time 2.38 hr,2.0%
same,B (hydrolyzed monoester),[2]; time 2.38 hr,23.4%
same,Byproduct,[2]; time 2.38 hr,2.0%
same,C (free astaxanthin),[2]; time 2.38 hr,66.6%
same,A (starting diester),[2]; time 2.97 hr,0.7%
same,B (hydrolyzed monoester),[2]; time 2.97 hr,14.9%
same,Byproduct,[2]; time 2.97 hr,2.7%
same,C (free astaxanthin),[2]; time 2.97 hr,75.4%
same,A (starting diester),[2]; time 3.55 hr,0.2%
same,B (hydrolyzed monoester),[2]; time 3.55 hr,9.2%
same,Byproduct,[2]; time 3.55 hr,3.4%
same,C (free astaxanthin),[2]; time 3.55 hr,80.7%
CN(Cc1cnc2nc(N)nc(N)c2n1)c1ccc(C(=O)N[C@@H](CCC(=O)O)C(=O)O)cc1 [methotrexate],cardiovascular events compared to placebo,[4],did not result in fewer cardiovascular events
same,"levels of IL-1β, IL-6, or CRP",[4],did not reduce
